Test results reported in PubChem BioAssay (NCI).
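The compound was tested at five concentrations on cells cultured in 96-well plates, with a 48-hour exposure period. The concentration for full growth arrest is given as TGI.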

Columns and labels:
Assay in all cases: NCI anticancer screen, dose series, 48 h
SF-268 CNS = system: SF-268 CNS
K-562 leukemia = system: K-562 leukemia
OVCAR-4 ovarian = system: OVCAR-4 ovarian
MDA-MB-231 breast = system: MDA-MB-231 breast
UACC-62 melanoma = system: UACC-62 melanoma
SN12C renal = system: SN12C renal
HOP-62 NSCLC = system: HOP-62 NSCLC
HCT-15 colon = system: HCT-15 colon
SW-620 colon = system: SW-620 colon
EKVX NSCLC = system: EKVX NSCLC
U251 CNS = system: U251 CNS
MDA-MB-435 = system: MDA-MB-435
HCT-116 colon = system: HCT-116 colon
TK-10 renal = system: TK-10 renal
HOP-92 NSCLC = system: HOP-92 NSCLC
RXF 393 renal = system: RXF 393 renal
NCI-H460 lung = system: NCI-H460 lung
CAKI-1 renal = system: CAKI-1 renal
UACC-257 melanoma = system: UACC-257 melanoma
SK-MEL-2 melanoma = system: SK-MEL-2 melanoma
NCI-H23 lung = system: NCI-H23 lung
CCRF-CEM leukemia = system: CCRF-CEM leukemia
SNB-75 CNS = system: SNB-75 CNS
HCC-2998 colon = system: HCC-2998 colon
IGROV1 ovarian = system: IGROV1 ovarian
ACHN renal = system: ACHN renal
LOX IMVI melanoma = system: LOX IMVI melanoma
MCF7 breast = system: MCF7 breast
DU-145 prostate = system: DU-145 prostate
UO-31 renal = system: UO-31 renal
BT-549 breast = system: BT-549 breast
SK-OV-3 ovarian = system: SK-OV-3 ovarian
SNB-19 CNS = system: SNB-19 CNS
PC-3 prostate = system: PC-3 prostate
MOLT-4 leukemia = system: MOLT-4 leukemia
HS 578T breast = system: HS 578T breast
MALME-3M melanoma = system: MALME-3M melanoma
NCI/ADR-RES ovarian = system: NCI/ADR-RES ovarian
786-0 renal = system: 786-0 renal
NCI-H522 lung = system: NCI-H522 lung
A498 renal = system: A498 renal
SR leukemia = system: SR leukemia
OVCAR-5 ovarian = system: OVCAR-5 ovarian
MDA-N = system: MDA-N
SF-539 CNS = system: SF-539 CNS
OVCAR-8 ovarian = system: OVCAR-8 ovarian
A549 NSCLC = system: A549 NSCLC
NCI-H226 lung = system: NCI-H226 lung
RPMI-8226 leukemia = system: RPMI-8226 leukemia
COLO 205 colon = system: COLO 205 colon
SF-295 CNS = system: SF-295 CNS
T-47D breast = system: T-47D breast
HT29 colon = system: HT29 colon
KM12 colon = system: KM12 colon
SK-MEL-28 melanoma = system: SK-MEL-28 melanoma
OVCAR-3 ovarian = system: OVCAR-3 ovarian
SK-MEL-5 melanoma = system: SK-MEL-5 melanoma
M14 melanoma = system: M14 melanoma
HL-60(TB) leukemia = system: HL-60(TB) leukemia

Work on `CCCC[Si](CCCC)(CCCC)O[C@@H](/C=C/C(=O)OCC)[C@H](Cc1ccccc1)O[Si](CCCC)(CCCC)CCCC` yielded a TGI (SF-268 CNS) greater than 100 µM, a TGI (K-562 leukemia) greater than 100 µM and a TGI (OVCAR-4 ovarian) greater than 100 µM. The TGI (MDA-MB-231 breast) was greater than 100 µM, the TGI (UACC-62 melanoma) was greater than 100 µM and the TGI (SN12C renal) was greater than 100 µM. The TGI (HOP-62 NSCLC) was greater than 100 µM, the TGI (HCT-15 colon) was greater than 100 µM and the TGI (SW-620 colon) was greater than 100 µM. It also gave a TGI (EKVX NSCLC) greater than 100 µM, a TGI (U251 CNS) greater than 100 µM and a TGI (MDA-MB-435) greater than 100 µM. For the same molecule, the TGI (HCT-116 colon) was greater than 100 µM, the TGI (TK-10 renal) was greater than 100 µM and the TGI (HOP-92 NSCLC) was greater than 100 µM. For the same molecule, the TGI (RXF 393 renal) was greater than 100 µM, the TGI (NCI-H460 lung) was greater than 100 µM and the TGI (CAKI-1 renal) was greater than 100 µM. It also gave a TGI (UACC-257 melanoma) greater than 100 µM, a TGI (SK-MEL-2 melanoma) greater than 100 µM and a TGI (NCI-H23 lung) greater than 100 µM. For the same molecule, the TGI (CCRF-CEM leukemia) was greater than 100 µM, the TGI (SNB-75 CNS) was greater than 100 µM and the TGI (HCC-2998 colon) was greater than 100 µM. It also gave a TGI (IGROV1 ovarian) greater than 100 µM, a TGI (ACHN renal) greater than 100 µM and a TGI (LOX IMVI melanoma) greater than 100 µM. The TGI (MCF7 breast) was greater than 100 µM, the TGI (DU-145 prostate) was greater than 100 µM and the TGI (UO-31 renal) was greater than 100 µM. The TGI (BT-549 breast) was greater than 100 µM, the TGI (SK-OV-3 ovarian) was greater than 100 µM and the TGI (SNB-19 CNS) was greater than 100 µM. The TGI (PC-3 prostate) was greater than 100 µM, the TGI (MOLT-4 leukemia) was greater than 100 µM and the TGI (HS 578T breast) was greater than 100 µM. It also gave a TGI (MALME-3M melanoma) greater than 100 µM, a TGI (NCI/ADR-RES ovarian) greater than 100 µM and a TGI (786-0 renal) greater than 100 µM. For the same molecule, the TGI (NCI-H522 lung) was greater than 100 µM, the TGI (A498 renal) was greater than 100 µM and the TGI (SR leukemia) was greater than 100 µM. It also gave a TGI (OVCAR-5 ovarian) greater than 100 µM, a TGI (MDA-N) greater than 100 µM and a TGI (SF-539 CNS) greater than 100 µM. For the same molecule, the TGI (OVCAR-8 ovarian) was greater than 100 µM, the TGI (A549 NSCLC) was greater than 100 µM and the TGI (NCI-H226 lung) was greater than 100 µM. For the same molecule, the TGI (RPMI-8226 leukemia) was greater than 100 µM, the TGI (COLO 205 colon) was greater than 100 µM and the TGI (SF-295 CNS) was greater than 100 µM. The TGI (T-47D breast) was greater than 100 µM, the TGI (HT29 colon) was greater than 100 µM and the TGI (KM12 colon) was greater than 100 µM.
For `CC(=O)O[C@H]1C(=O)[C@@]2(C)[C@H]([C@H](OC(=O)c3ccncc3)[C@]3(O)C[C@H](OC(=O)[C@H](O)[C@@H](NC(=O)c4ccccc4)c4ccccc4)C(C)=C1C3(C)C)[C@]1(OC(C)=O)CO[C@@H]1C[C@@H]2O`, the TGI (SF-268 CNS) was greater than 25 µM, the TGI (K-562 leukemia) was 5.36 µM and the TGI (SK-MEL-28 melanoma) was greater than 25 µM. For the same molecule, the TGI (OVCAR-4 ovarian) was greater than 25 µM, the TGI (MDA-MB-231 breast) was greater than 25 µM and the TGI (UACC-62 melanoma) was greater than 25 µM. The TGI (SN12C renal) was greater than 25 µM, the TGI (HOP-62 NSCLC) was greater than 25 µM and the TGI (HCT-15 colon) was greater than 25 µM. For the same molecule, the TGI (SW-620 colon) was greater than 25 µM, the TGI (EKVX NSCLC) was greater than 25 µM and the TGI (U251 CNS) was greater than 23.3 µM. For the same molecule, the TGI (OVCAR-3 ovarian) was greater than 18.5 µM, the TGI (MDA-MB-435) was 1.96 µM and the TGI (HCT-116 colon) was greater than 11.1 µM. It also gave a TGI (TK-10 renal) greater than 25 µM, a TGI (RXF 393 renal) greater than 23.3 µM and a TGI (NCI-H460 lung) greater than 25 µM. It also gave a TGI (CAKI-1 renal) greater than 25 µM, a TGI (UACC-257 melanoma) greater than 25 µM and a TGI (SK-MEL-2 melanoma) greater than 25 µM. The TGI (NCI-H23 lung) was greater than 25 µM, the TGI (CCRF-CEM leukemia) was 10.7 µM and the TGI (SK-MEL-5 melanoma) was greater than 22 µM. For the same molecule, the TGI (SNB-75 CNS) was greater than 18.1 µM, the TGI (HCC-2998 colon) was 11 µM and the TGI (IGROV1 ovarian) was greater than 25 µM. The TGI (ACHN renal) was greater than 25 µM, the TGI (LOX IMVI melanoma) was greater than 25 µM and the TGI (MCF7 breast) was greater than 25 µM. The TGI (DU-145 prostate) was greater than 25 µM, the TGI (UO-31 renal) was greater than 25 µM and the TGI (BT-549 breast) was greater than 25 µM. The TGI (SK-OV-3 ovarian) was greater than 25 µM, the TGI (SNB-19 CNS) was greater than 25 µM and the TGI (PC-3 prostate) was greater than 21 µM. The TGI (MOLT-4 leukemia) was greater than 25 µM, the TGI (HS 578T breast) was greater than 21 µM and the TGI (MALME-3M melanoma) was greater than 25 µM. It also gave a TGI (NCI/ADR-RES ovarian) greater than 25 µM, a TGI (786-0 renal) greater than 25 µM and a TGI (M14 melanoma) greater than 25 µM. It also gave a TGI (NCI-H522 lung) of 10.2 µM, a TGI (A498 renal) greater than 25 µM and a TGI (SR leukemia) greater than 25 µM. For the same molecule, the TGI (OVCAR-5 ovarian) was greater than 25 µM, the TGI (MDA-N) was 2.1 µM and the TGI (SF-539 CNS) was 4.55 µM. The TGI (OVCAR-8 ovarian) was greater than 25 µM, the TGI (HL-60(TB) leukemia) was 1.63 µM and the TGI (A549 NSCLC) was greater than 25 µM. For the same molecule, the TGI (NCI-H226 lung) was greater than 25 µM, the TGI (RPMI-8226 leukemia) was 6.5 µM and the TGI (COLO 205 colon) was greater than 20.1 µM. It also gave a TGI (SF-295 CNS) greater than 25 µM, a TGI (T-47D breast) greater than 25 µM and a TGI (HT29 colon) greater than 25 µM. For the same molecule, the TGI (KM12 colon) was greater than 25 µM.
